Measurements taken from PubChem BioAssay (NCI).
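Briefly, cells in 96-well plates were exposed to five compound concentrations for 48 h, and endpoints were estimated by linear interpolation. The concentration for 50% growth inhibition is given as GI50. TGI: concentration producing complete growth inhibition.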

Assays:
Assay in all cases: growth of human tumour cells (NCI), 48 h
786-0 renal = system: 786-0 renal
A498 renal = system: A498 renal
A549 NSCLC = system: A549 NSCLC
ACHN renal = system: ACHN renal
BT-549 breast = system: BT-549 breast
CAKI-1 renal = system: CAKI-1 renal
CCRF-CEM leukemia = system: CCRF-CEM leukemia
COLO 205 colon = system: COLO 205 colon
DU-145 prostate = system: DU-145 prostate
EKVX NSCLC = system: EKVX NSCLC
HCC-2998 colon = system: HCC-2998 colon
HCT-116 colon = system: HCT-116 colon
HCT-15 colon = system: HCT-15 colon
HL-60(TB) leukemia = system: HL-60(TB) leukemia
HOP-62 NSCLC = system: HOP-62 NSCLC
HOP-92 NSCLC = system: HOP-92 NSCLC
HS 578T breast = system: HS 578T breast
HT29 colon = system: HT29 colon
IGROV1 ovarian = system: IGROV1 ovarian
K-562 leukemia = system: K-562 leukemia
KM12 colon = system: KM12 colon
LOX IMVI melanoma = system: LOX IMVI melanoma
MALME-3M melanoma = system: MALME-3M melanoma
MCF7 breast = system: MCF7 breast
MDA-MB-231 breast = system: MDA-MB-231 breast
MDA-MB-435 = system: MDA-MB-435
MOLT-4 leukemia = system: MOLT-4 leukemia
NCI-H226 lung = system: NCI-H226 lung
NCI-H23 lung = system: NCI-H23 lung
NCI-H460 lung = system: NCI-H460 lung
NCI-H522 lung = system: NCI-H522 lung
NCI/ADR-RES ovarian = system: NCI/ADR-RES ovarian
OVCAR-3 ovarian = system: OVCAR-3 ovarian
OVCAR-4 ovarian = system: OVCAR-4 ovarian
OVCAR-5 ovarian = system: OVCAR-5 ovarian
OVCAR-8 ovarian = system: OVCAR-8 ovarian
PC-3 prostate = system: PC-3 prostate
RPMI-8226 leukemia = system: RPMI-8226 leukemia
RXF 393 renal = system: RXF 393 renal
SF-268 CNS = system: SF-268 CNS
SF-295 CNS = system: SF-295 CNS
SF-539 CNS = system: SF-539 CNS
SK-MEL-2 melanoma = system: SK-MEL-2 melanoma
SK-MEL-28 melanoma = system: SK-MEL-28 melanoma
SK-MEL-5 melanoma = system: SK-MEL-5 melanoma
SK-OV-3 ovarian = system: SK-OV-3 ovarian
SN12C renal = system: SN12C renal
SNB-19 CNS = system: SNB-19 CNS
SNB-75 CNS = system: SNB-75 CNS
SR leukemia = system: SR leukemia
SW-620 colon = system: SW-620 colon
T-47D breast = system: T-47D breast
TK-10 renal = system: TK-10 renal
U251 CNS = system: U251 CNS
UACC-257 melanoma = system: UACC-257 melanoma
UACC-62 melanoma = system: UACC-62 melanoma
UO-31 renal = system: UO-31 renal
M14 melanoma = system: M14 melanoma

## NNC(=S)N/N=C/c1ccccn1
786-0 renal
  GI50: 1.76 µM
  TGI: > 100 µM
A498 renal
  GI50: 1.82 µM
  TGI: 9.01 µM
A549 NSCLC
  GI50: 3.14 µM
  TGI: > 100 µM
ACHN renal
  GI50: 1.71 µM
  TGI: > 100 µM
BT-549 breast
  GI50: 4.29 µM
  TGI: > 100 µM
CAKI-1 renal
  GI50: 1.66 µM
  TGI: > 100 µM
CCRF-CEM leukemia
  GI50: 2.05 µM
  TGI: > 100 µM
COLO 205 colon
  GI50: 2.39 µM
  TGI: > 100 µM
DU-145 prostate
  GI50: 1.85 µM
  TGI: > 100 µM
EKVX NSCLC
  GI50: 4.5 µM
  TGI: > 100 µM
HCC-2998 colon
  GI50: 3.12 µM
  TGI: > 100 µM
HCT-116 colon
  GI50: 1.66 µM
  TGI: > 100 µM
HCT-15 colon
  GI50: 1.03 µM
  TGI: > 100 µM
HL-60(TB) leukemia
  GI50: 1.74 µM
  TGI: 5.92 µM
HOP-62 NSCLC
  GI50: 1.44 µM
  TGI: 35.3 µM
HOP-92 NSCLC
  GI50: 0.887 µM
  TGI: 8.2 µM
HS 578T breast
  GI50: 3.86 µM
  TGI: > 100 µM
HT29 colon
  GI50: 3.54 µM
  TGI: > 100 µM
IGROV1 ovarian
  GI50: 3.05 µM
  TGI: > 100 µM
K-562 leukemia
  GI50: 2.64 µM
  TGI: > 100 µM
KM12 colon
  GI50: 2.62 µM
  TGI: > 100 µM
LOX IMVI melanoma
  GI50: 2.3 µM
  TGI: > 100 µM
MALME-3M melanoma
  GI50: 5.19 µM
  TGI: > 100 µM
MCF7 breast
  GI50: 2.99 µM
  TGI: > 100 µM
MDA-MB-231 breast
  GI50: 0.699 µM
  TGI: > 100 µM
MDA-MB-435
  GI50: 5.2 µM
  TGI: > 100 µM
MOLT-4 leukemia
  GI50: 3.34 µM
  TGI: > 100 µM
NCI-H226 lung
  GI50: 2.41 µM
  TGI: 13.8 µM
NCI-H23 lung
  GI50: 3.54 µM
  TGI: > 100 µM
NCI-H460 lung
  GI50: 1.23 µM
  TGI: 8.54 µM
NCI-H522 lung
  GI50: 0.258 µM
  TGI: 0.859 µM
NCI/ADR-RES ovarian
  GI50: 2.81 µM
  TGI: > 100 µM
OVCAR-3 ovarian
  GI50: 3.02 µM
  TGI: > 100 µM
OVCAR-4 ovarian
  GI50: 1.67 µM
  TGI: > 100 µM
OVCAR-5 ovarian
  GI50: 3.68 µM
  TGI: > 100 µM
OVCAR-8 ovarian
  GI50: 2.28 µM
  TGI: > 100 µM
PC-3 prostate
  GI50: 5.62 µM
  TGI: > 100 µM
RPMI-8226 leukemia
  GI50: 2.44 µM
  TGI: > 100 µM
RXF 393 renal
  GI50: 2.5 µM
  TGI: > 100 µM
SF-268 CNS
  GI50: 1.58 µM
  TGI: > 100 µM
SF-295 CNS
  GI50: 3.06 µM
  TGI: > 100 µM
SF-539 CNS
  GI50: 2.06 µM
  TGI: 9.32 µM
SK-MEL-2 melanoma
  GI50: 2.86 µM
  TGI: > 100 µM
SK-MEL-28 melanoma
  GI50: 4.47 µM
  TGI: > 100 µM
SK-MEL-5 melanoma
  GI50: 2.63 µM
  TGI: 22.3 µM
SK-OV-3 ovarian
  GI50: 2.89 µM
  TGI: > 100 µM
SN12C renal
  GI50: 2.61 µM
  TGI: > 100 µM
SNB-19 CNS
  GI50: 3.57 µM
  TGI: > 100 µM
SNB-75 CNS
  GI50: 1.72 µM
  TGI: 11.4 µM
SR leukemia
  GI50: 0.884 µM
  TGI: 90.1 µM
SW-620 colon
  GI50: 3.89 µM
  TGI: > 100 µM
T-47D breast
  GI50: 2.44 µM
  TGI: > 100 µM
TK-10 renal
  GI50: 1.96 µM
  TGI: > 100 µM
U251 CNS
  GI50: 1.99 µM
  TGI: > 100 µM
UACC-257 melanoma
  GI50: 2.7 µM
  TGI: 26.6 µM
UACC-62 melanoma
  GI50: 2.03 µM
  TGI: 14 µM
UO-31 renal
  GI50: 3.99 µM
  TGI: > 100 µM

## COc1ccc(/C=C/C(=O)c2ccc(B(O)O)cc2)cc1O
786-0 renal
  GI50: 18.7 µM
  TGI: 53.7 µM
A498 renal
  GI50: 5.47 µM
  TGI: 21.8 µM
A549 NSCLC
  GI50: 14.5 µM
  TGI: > 76.7 µM
ACHN renal
  GI50: 22.1 µM
  TGI: > 84.7 µM
BT-549 breast
  GI50: 6.8 µM
  TGI: 20.1 µM
CAKI-1 renal
  GI50: 17.7 µM
  TGI: > 70.8 µM
CCRF-CEM leukemia
  GI50: 7.23 µM
  TGI: 44.4 µM
COLO 205 colon
  GI50: 16.2 µM
  TGI: 32 µM
DU-145 prostate
  GI50: 6.21 µM
  TGI: 28.9 µM
HCC-2998 colon
  GI50: 6.46 µM
  TGI: 18.6 µM
HCT-116 colon
  GI50: 2.64 µM
  TGI: 10.1 µM
HCT-15 colon
  GI50: 4.95 µM
  TGI: > 39.3 µM
HL-60(TB) leukemia
  GI50: 2.52 µM
  TGI: 44.2 µM
HOP-62 NSCLC
  GI50: 18.5 µM
  TGI: > 57.2 µM
HOP-92 NSCLC
  GI50: 3.46 µM
  TGI: 29.8 µM
HS 578T breast
  GI50: 12.6 µM
  TGI: > 100 µM
HT29 colon
  GI50: 8.22 µM
  TGI: > 60.4 µM
IGROV1 ovarian
  GI50: 12.5 µM
  TGI: > 54.4 µM
K-562 leukemia
  GI50: 2.86 µM
  TGI: > 100 µM
KM12 colon
  GI50: 3.96 µM
  TGI: 15 µM
LOX IMVI melanoma
  GI50: 4.66 µM
  TGI: 19.1 µM
M14 melanoma
  GI50: 8.03 µM
  TGI: 29.6 µM
MALME-3M melanoma
  GI50: 32.3 µM
  TGI: > 100 µM
MCF7 breast
  GI50: 3.48 µM
  TGI: 32.5 µM
MDA-MB-231 breast
  GI50: 20.2 µM
  TGI: > 85 µM
MDA-MB-435
  GI50: 2.11 µM
  TGI: 5.5 µM
MOLT-4 leukemia
  GI50: 10.9 µM
  TGI: > 100 µM
NCI-H226 lung
  GI50: 28.2 µM
  TGI: 97.1 µM
NCI-H23 lung
  GI50: 21 µM
  TGI: 69.4 µM
NCI-H460 lung
  GI50: 19.8 µM
  TGI: > 83.4 µM
NCI-H522 lung
  GI50: 17.8 µM
  TGI: 45.1 µM
NCI/ADR-RES ovarian
  GI50: 26.8 µM
  TGI: > 100 µM
OVCAR-3 ovarian
  GI50: 7.27 µM
  TGI: 20.1 µM
OVCAR-4 ovarian
  GI50: 16.7 µM
  TGI: 40.3 µM
OVCAR-5 ovarian
  GI50: 21.5 µM
  TGI: 69.5 µM
OVCAR-8 ovarian
  GI50: 28.3 µM
  TGI: > 77.9 µM
PC-3 prostate
  GI50: 15 µM
  TGI: 50.1 µM
RPMI-8226 leukemia
  GI50: 3.27 µM
  TGI: 23 µM
RXF 393 renal
  GI50: 11.5 µM
  TGI: 39.6 µM
SF-268 CNS
  GI50: 19.9 µM
  TGI: 78.8 µM
SF-295 CNS
  GI50: 15.1 µM
  TGI: 56.5 µM
SF-539 CNS
  GI50: 12.5 µM
  TGI: > 79.6 µM
SK-MEL-2 melanoma
  GI50: 26.1 µM
  TGI: 64.9 µM
SK-MEL-28 melanoma
  GI50: 22.3 µM
  TGI: > 89.5 µM
SK-MEL-5 melanoma
  GI50: 14.6 µM
  TGI: 37.5 µM
SK-OV-3 ovarian
  GI50: 22.2 µM
  TGI: > 89.1 µM
SN12C renal
  GI50: 20.1 µM
  TGI: > 77.7 µM
SNB-19 CNS
  GI50: 18.7 µM
  TGI: > 64.3 µM
SNB-75 CNS
  GI50: 9.9 µM
  TGI: 31.2 µM
SR leukemia
  GI50: 3.2 µM
  TGI: > 100 µM
SW-620 colon
  GI50: 3.83 µM
  TGI: 22 µM
T-47D breast
  GI50: 13.5 µM
  TGI: 50.9 µM
TK-10 renal
  GI50: 30.4 µM
  TGI: > 67.6 µM
U251 CNS
  GI50: 9.37 µM
  TGI: 27 µM
UACC-257 melanoma
  GI50: 21.6 µM
  TGI: 59.3 µM
UACC-62 melanoma
  GI50: 14.3 µM
  TGI: 33.2 µM
UO-31 renal
  GI50: 16.7 µM
  TGI: > 92.8 µM
